Test system: Formosan subterranean termites
Experiment: Petri dish treated/untreated sand bioassay for repelling activity against termites
Assay type: in vivo, Coptotermes formosanus
Design: key to percent of termites on untreated sand vs expected value of 50% (Chi-Square, p≦0.05): “−” indicates the test was not significantly different from the expected value; “+” indicates the test was significantly different from the expected value
Procedure: A carton nest (colony A) of Formosan subterranean termites was collected in Algiers, Louisiana in November 1997, and held in 250-liter cans. The cans were filled with pine as a food source, and kept at a temperature range of 24-26° C. Moistened corrugated cardboard rolls were used to retrieve termites from the cans. Once the termites migrated to the cardboard rolls, they were gently knocked from the cardboard rolls into clean rectangular plastic trays (40 cm×50 cm). Retrieved termites were isolated from debris by allowing them to cling to sheets of moistened paper towels. The average weight of each termite was 1.21 mg.
To test for effectiveness of nootkatone, 1,10-dihydronootkatone and tetrahydronootkatone in repelling termites, a bioassay was conducted using Petri dishes (5 cm diameter and 1 cm height). To ensure adequate moisture for the termites, 1 ml of a hot agar solution (1.5% in H2O) was spread on the bottom of the Petri dish. After the agar cooled, sand that was treated as described below was spread on the bottom of the Petri dish. For the treated sand, purified 1,10-dihydronootkatone or tetrahydronootkatone were dissolved in 2 ml ethanol, and then diluted to achieve final concentrations of 1, 2, 5, 12.5, 25, 50, and 100 μg/g sand. The solution was mixed with 1 g sand that had been autoclaved and cooled. The control sand was autoclaved sand with only 200 μl ethanol added. One half of the surfaces in the Petri dishes were covered with 1 g treated sand, and the other half with 1 g untreated sand.
The prepared Petri dishes were then used to evaluate the repelling activity against Formosan subterranean termites. Ten worker termites were added to each Petri dish, and the dishes were covered to eliminate light. Five replicate dishes were tested for each concentration and for the control. Termite position was recorded every 15 min during the first hour of testing by counting the number of termites observed on untreated sand. After the first hour, termite position was recorded each hour for 3 hr.
Differences between the percent of termites on untreated sand and an expected value were statistically analyzed by a Chi-Square analysis, using an expected value of 50% and a significance level of p≦0.05.

`C=C(C)C1CCC2CC(=O)CC(C)C2(C)C1` (centres unmarked) [Dihydronootkatone, 1,4,4a,5,6,7,8,10-octahydro-6-isopropenyl-4,4a-dimethyl-2(1H)-naphthalenone] was tested, and the “percent of termites on untreated sand vs expected value of 50% (Chi-Square, p≦0.05)” value (“percent … of 50% (Chi-Square, p≦0.05)” below) (2 μg/dish, 0.25 hour) was “−”, the “percent … of 50% (Chi-Square, p≦0.05)” value (2 μg/dish, 0.5 hour) was “−” and the “percent … of 50% (Chi-Square, p≦0.05)” value (2 μg/dish, 0.75 hour) was “−”. For the same compound, the “percent … of 50% (Chi-Square, p≦0.05)” value (2 μg/dish, 1 hour) was “−”, the “percent … of 50% (Chi-Square, p≦0.05)” value (2 μg/dish, 2 hour) was “−” and the “percent … of 50% (Chi-Square, p≦0.05)” value (2 μg/dish, 3 hour) was “−”. For the same compound, the “percent … of 50% (Chi-Square, p≦0.05)” value (5 μg/dish, 0.25 hour) was “−”, the “percent … of 50% (Chi-Square, p≦0.05)” value (5 μg/dish, 0.5 hour) was “−” and the “percent … of 50% (Chi-Square, p≦0.05)” value (5 μg/dish, 0.75 hour) was “−”. For the same compound, the “percent … of 50% (Chi-Square, p≦0.05)” value (5 μg/dish, 1 hour) was “−”, the “percent … of 50% (Chi-Square, p≦0.05)” value (5 μg/dish, 2 hour) was “−” and the “percent … of 50% (Chi-Square, p≦0.05)” value (5 μg/dish, 3 hour) was “−”. The “percent … of 50% (Chi-Square, p≦0.05)” value (12.5 μg/dish, 0.25 hour) was “+”, the “percent … of 50% (Chi-Square, p≦0.05)” value (12.5 μg/dish, 0.5 hour) was “+” and the “percent … of 50% (Chi-Square, p≦0.05)” value (12.5 μg/dish, 0.75 hour) was “+”. For the same compound, the “percent … of 50% (Chi-Square, p≦0.05)” value (12.5 μg/dish, 1 hour) was “+”, the “percent … of 50% (Chi-Square, p≦0.05)” value (12.5 μg/dish, 2 hour) was “+” and the “percent … of 50% (Chi-Square, p≦0.05)” value (12.5 μg/dish, 3 hour) was “+”. For the same compound, the “percent … of 50% (Chi-Square, p≦0.05)” value (25 μg/dish, 0.25 hour) was “−”, the “percent … of 50% (Chi-Square, p≦0.05)” value (25 μg/dish, 0.5 hour) was “+” and the “percent … of 50% (Chi-Square, p≦0.05)” value (25 μg/dish, 0.75 hour) was “+”. The “percent … of 50% (Chi-Square, p≦0.05)” value (25 μg/dish, 1 hour) was “+”, the “percent … of 50% (Chi-Square, p≦0.05)” value (25 μg/dish, 2 hour) was “+” and the “percent … of 50% (Chi-Square, p≦0.05)” value (25 μg/dish, 3 hour) was “+”. The “percent … of 50% (Chi-Square, p≦0.05)” value (50 μg/dish, 0.25 hour) was “+”, the “percent … of 50% (Chi-Square, p≦0.05)” value (50 μg/dish, 0.5 hour) was “+” and the “percent … of 50% (Chi-Square, p≦0.05)” value (50 μg/dish, 0.75 hour) was “+”. The “percent … of 50% (Chi-Square, p≦0.05)” value (50 μg/dish, 1 hour) was “+”, the “percent … of 50% (Chi-Square, p≦0.05)” value (50 μg/dish, 2 hour) was “+” and the “percent … of 50% (Chi-Square, p≦0.05)” value (50 μg/dish, 3 hour) was “+”. For the same compound, the “percent … of 50% (Chi-Square, p≦0.05)” value (100 μg/dish, 0.25 hour) was “+”, the “percent … of 50% (Chi-Square, p≦0.05)” value (100 μg/dish, 0.5 hour) was “+” and the “percent … of 50% (Chi-Square, p≦0.05)” value (100 μg/dish, 0.75 hour) was “+”. The “percent … of 50% (Chi-Square, p≦0.05)” value (100 μg/dish, 1 hour) was “+”, the “percent … of 50% (Chi-Square, p≦0.05)” value (100 μg/dish, 2 hour) was “+” and the “percent … of 50% (Chi-Square, p≦0.05)” value (100 μg/dish, 3 hour) was “+”. The “factor by which the effective termite-repellent concentration is lower than that of nootkatone” value (relative to nootkatone) was 8 and the “concentration effective as termite repellent” value (time periods up to 3 hr) was 12.5 µg.
